According to patent US20230123334A1, “AMINO LIPID COMPOUND, PREPARATION METHOD THEREFOR, AND APPLICATION THEREOF” (SHENZHEN SHENXIN BIOTECHNOLOGY CO., LTD., priority 2020, published 2023):

Test system: HEK293 cells
Assay: Preliminary screening as DNA vectors, GFP transfection of HEK293 cells
Assay type: cell-based
How it was run: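 First, amino lipid and DOPE were vortexed in sodium acetate buffer (pH 5.6) to form liposomes. Next, these were held with 75 ng EGFP plasmid at room temperature for 30 min. Finally, HEK293 cells were added, cultured at 37° C., Hoechst-stained, and GFP+/total nuclei scored by imaging.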

[1] = amino lipid/DOPE liposome with 75 ng plasmid DNA (psin-EGFP-IRES-Puro), number of GFP-expressing cells divided by total nuclei (Hoechst)

SMILES | Absolute DNA transfection efficiency in HEK293 cells [1] [%] | Absolute DNA transfection efficiency in HEK293 cells (HEK293 cells, lipid/DOPE liposome with 75 ng plasmid DNA (psin-EGFP-IRES-Puro), number of cells expressing GFP divided by total number of nuclei (Hoechst)) [%]
CCCCCCCCCSc1nc(NCCCN2CCOCC2)nc(SCCCCCCCC)n1 [S8S9 D8] | 16.0 | 
CCCCCCCCCCCCCCCNc1nc(NCC2CCN(C)CC2)nc(SCCCCCCCC)n1 [S8N15 D10] | 22.6 | 
CCCCCCCCCCCCCCCSc1nc(NCCCCCCCCCCCC)nc(NCCN2CCOCC2)n1 [S15N12 D2] | 0.0 | 
CCCCCCCCCCCCCCCCNc1nc(NCC2CCN(C)CC2)nc(SCCCCCCCCCCCCCC)n1 [S14N16 D10] | 0.7 | 
CCCCCCCCCCCCCCCCCCSc1nc(NCCN2CCCCC2)nc(SCCCCCC)n1 [S6S18 D4] | 10.4 | 
CCCCCCCCCCCCCNc1nc(NCCN2CCCC2)nc(SCCCCCC)n1 [S6N13 D3] | 9.9 | 
CCCCCCCCCCCCCCCCSc1nc(NCCCCCC)nc(NCCN2CCN(C)CC2)n1 [S16N6 D5] | 18.7 | 
CCCCCCCCCCCCSc1nc(NCCCCCCCC)nc(NCC2CCN(C)CC2)n1 [S12N8 D10] | 16.3 | 
CCCCCCCCCCSc1nc(NCCCCCCCC)nc(NCC2CCN(C)CC2)n1 [S10N8 D10] | 0.6 | 
CCCCCCCCCCSc1nc(NCCN2CCCCC2)nc(SCCCCCC)n1 [S6S10 D4] | 4.5 | 
CCCCCCCCCCCCCCCCCCSc1nc(NCCCCCCCC)nc(NCCCN2CCN(C)CC2)n1 [S18N8 D9] | 6.6 | 
CCCCCCCCCCCCCCCNc1nc(NCCN(C)C)nc(SCCCCCCC)n1 [S7N15 D1] | 19.5 | 
CCCCCCCCCCSc1nc(NCCN2CCCC2)nc(SCCCCCCC)n1 [S7S10 D3] | 19.4 | 
CCCCCCCCCCCCCCCCCCNc1nc(NCCN2CCCCC2)nc(SCCCCCCCCCCCCCCCCCC)n1 [S18N18 D4] | 0.0 | 
CCCCCCCCCCCNc1nc(NCCN(C)C)nc(SCCCCCCC)n1 [S7N11 D1] | 20.3 | 
CCCCCCCCCSc1nc(NCCCCCCC)nc(NCC2CCN(C)CC2)n1 [S9N7 D10] | 9.3 | 
CCCCCCCCCCCCCCSc1nc(NCCCCCCCCCCCCC)nc(NCCN2CCCCC2)n1 [S14N13 D4] | 3.9 | 
CCCCCCCCCCCCCCCSc1nc(NCCN(C)C)nc(N(CCCCCCCCCCCC)CCCCCCCCCCCC)n1 [S15^2N12 D1] | 0.0 | 
CCCCCCCCCCCCCCCNc1nc(NCCCN(C)C)nc(SCCCCCCCCCC)n1 [S10N15 D6] | 9.1 | 
CCCCCCCCCCCCN(CCCCCCCCCCCC)c1nc(NCCN2CCOCC2)nc(SCCCCCCCC)n1 [S8^2N12 D2] | 0.0 | 
CCCCCCCCCCCCSc1nc(NCCN2CCCCC2)nc(SCCCCCCCC)n1 [S8S12 D4] | 10.8 | 
CCCCCCCCCCSc1nc(NCCCN2CCOCC2)nc(SCCCCCCC)n1 [S7S10 D8] | 18.0 | 
CCCCCCCCCCCCCCCCCCSc1nc(NCCN2CCCC2)nc(SCCCCCC)n1 [S6S18 D3] | 13.8 | 
CCCCCCCCCCCCCCCCCCNc1nc(NCCCN2CCN(C)CC2)nc(SCCCCCCCC)n1 [S8N18 D9] | 5.3 | 

SMILES | Absolute DNA transfection efficiency in HEK293 cells [1] [%] | Absolute DNA transfection efficiency in HEK293 cells (HEK293 cells, lipid/DOPE liposome with 75 ng plasmid DNA (psin-EGFP-IRES-Puro), number of cells expressing GFP divided by total number of nuclei (Hoechst)) [%]
CCCCCCCCCCCCCCCSc1nc(NCCCCCCCCCCC)nc(NCCCN(C)C)n1 [S15N11 D6] | 12.9 | 
CCCCCCCCCCCCSc1nc(NCCN2CCN(C)CC2)nc(SCCCCCCC)n1 [S7S12 D5] | 9.6 | 
CCCCCCCCCCCCN(CCCCCCCCCCCC)c1nc(NCCN2CCCC2)nc(SCCCCCCCCCC)n1 [S10^2N12 D3] | 1.1 | 
CCCCCCCCCCCCCCCCSc1nc(NCCCCCCCCCCCCC)nc(NCCN(C)C)n1 [S16N13 D1] | 1.2 | 
CCCCCCCCCCCCCCCCSc1nc(NCCCCCCCCCCCC)nc(NCCN2CCOCC2)n1 [S16N12 D2] | 0.0 | 
CCCCCCCCCCCCCCCSc1nc(NCCCCCC)nc(NCCCN2CCOCC2)n1 [S15N6 D8] | 19.8 | 
CCCCCCCCCCCCCCCCCCSc1nc(NCCN2CCN(C)CC2)nc(SCCCCCC)n1 [S6S18 D5] | 15.1 | 
CCCCCCCCCCCCCCCCCCSc1nc(NCCCCCCCCCCCCCCC)nc(NCC2CCN(C)CC2)n1 [S18N15 D10] | 0.2 | 
CCCCCCCCCCCCCCCCNc1nc(NCCN2CCN(C)CC2)nc(SCCCCCCC)n1 [S7N16 D5] | 18.2 | 
CCCCCCCCCCCCCNc1nc(NCCCN2CCOCC2)nc(SCCCCCCCCCCCC)n1 [S12N13 D8] | 0.0 | 
CCCCCCCCCCCCSc1nc(NCCN(C)C)nc(SCCCCCCC)n1 [S7S12 D1] | 8.2 | 
CCCCCCCCCCCCCCCNc1nc(NCCCN(C)C)nc(SCCCCCC)n1 [S6N15 D6] | 25.9 | 
CCCCCCCCCCCCCCCCSc1nc(NCCCCCC)nc(NCC2CCN(C)CC2)n1 [S16N6 D10] | 14.5 | 
CCCCCCCCCCCCN(CCCCCCCCCCCC)c1nc(NCCN2CCCCC2)nc(SCCCCCCCCCCC)n1 [S11^2N12 D4] | 0.0 | 
CCCCCCCCCCCCCCCSc1nc(NCC2CCN(C)CC2)nc(SCCCCCC)n1 [S6S15 D10] | 34.5 | 
CCCCCCCCCCCSc1nc(NCCCN2CCOCC2)nc(SCCCCCC)n1 [S6S11 D8] | 4.5 | 
CCCCCCCCCNc1nc(NCCCN2CCOCC2)nc(SCCCCCCCC)n1 [S8N9 D8] | 14.8 | 
CCCCCCCCCCCCCCCCCCSc1nc(NCCCN2CCOCC2)nc(N(CCCCCCCCCCCC)CCCCCCCCCCCC)n1 [S18^2N12 D8] | 0.0 | 
CCCCCCCCCSc1nc(NCCCN2CCOCC2)nc(SCCCCCCC)n1 [S7S9 D8] | 12.2 | 
CCCCCCCCCCSc1nc(NCCCN(C)C)nc(SCCCCCCCC)n1 [S8S10 D6] | 9.3 | 
CCCCCCCCCCCSc1nc(NCCCCCCCCC)nc(NCCCN(C)C)n1 [S11N9 D6] | 40.1 | 
CCCCCCCCNc1nc(NCCCN2CCOCC2)nc(SCCCCCCC)n1 [S7N8 D8] | 2.7 | 
CCCCCCCCCCCCCCCSc1nc(NCCCCCC)nc(NCCCN(C)C)n1 [S15N6 D6] | 34.2 | 
CCCCCCCCCCCCCCCCSc1nc(NCCCCCCCCCCCCCCC)nc(NCCN2CCCC2)n1 [S16N15 D3] | 0.0 | 

SMILES | Absolute DNA transfection efficiency in HEK293 cells [1] [%] | Absolute DNA transfection efficiency in HEK293 cells (HEK293 cells, lipid/DOPE liposome with 75 ng plasmid DNA (psin-EGFP-IRES-Puro), number of cells expressing GFP divided by total number of nuclei (Hoechst)) [%]
CCCCCCCCSc1nc(NCCN2CCOCC2)nc(SCCCCCC)n1 [S6S8 D2] | 2.5 | 
CCCCCCCCCCSc1nc(NCCCN2CCOCC2)nc(SCCCCCCCC)n1 [S8S10 D8] | 13.7 | 
CCCCCCCCCCCCCNc1nc(NCCN2CCCCC2)nc(SCCCCCCCCCCC)n1 [S11N13 D4] | 3.5 | 
CCCCCCCCCSc1nc(NCCCCCCCC)nc(NCCCN(C)C)n1 [S9N8 D6] | 17.9 | 
CCCCCCCCCCCCCCCCCCNc1nc(NCCN2CCCCC2)nc(SCCCCCCCCCCC)n1 [S11N18 D4] | 4.4 | 
CCCCCCCCCCSc1nc(NCCCCCCCC)nc(NCCCN2CCOCC2)n1 [S10N8 D8] | 3.4 | 
CCCCCCCCCCCCNc1nc(NCCN2CCCCC2)nc(SCCCCCC)n1 [S6N12 D4] | 2.0 | 
CCCCCCSc1nc(NCCCN(C)C)nc(SCCCCCC)n1 [S6S6 D6] | 12.5 | 
CCCCCCCCCSc1nc(NCCN2CCN(C)CC2)nc(SCCCCCCC)n1 [S7S9 D5] | 12.5 | 
CCCCCCCCCCCCCCCCCCSc1nc(NCCCN(C)C)nc(SCCCCCCC)n1 [S7S18 D6] | 5.5 | 
CCCCCCCCCCCCSc1nc(NCCCCCC)nc(NCCN2CCN(C)CC2)n1 [S12N6 D5] | 0.2 | 
CCCCCCCCCCCCCCCCCCNc1nc(NCCN2CCCCC2)nc(SCCCCCCCCCCCC)n1 [S12N18 D4] | 0.3 | 
CCCCCCCCCCCCCCCCCCNc1nc(NCCN2CCCCC2)nc(SCCCCCCC)n1 [S7N18 D4] | 3.2 | 
CCCCCCCCCCCCCCCCCCSc1nc(NCCCCCCCCC)nc(NCCN2CCN(C)CC2)n1 [S18N9 D5] | 7.7 | 
CCCCCCCCCCCCCCCCSc1nc(NCCCCCCCCC)nc(NCCN2CCN(C)CC2)n1 [S16N9 D5] | 7.8 | 
CCCCCCCCCCCCN(CCCCCCCCCCCC)c1nc(NCCCCCCCCCCC)nc(NCCCN2CCN(C)CC2)n1 [Compound N112N12D9] |  | 0.1
CCCCCCCCCCCCCCCCSc1nc(NCCCCCCCCCCCC)nc(NCCN(C)C)n1 [S16N12 D1] | 4.2 | 
CCCCCCCCCCCCCCCCCCNc1nc(NCCN(C)C)nc(SCCCCCCCCC)n1 [S9N18 D1] | 24.2 | 
CCCCCCCCCCCCCCCCCCSc1nc(NCCCCCC)nc(NCCN2CCOCC2)n1 [S18N6 D2] | 5.9 | 
CCCCCCCCCCCCCCSc1nc(NCCCCCCC)nc(NCCN2CCCCC2)n1 [S14N7 D4] | 3.7 | 
CCCCCCCNc1nc(NCC2CCN(C)CC2)nc(SCCCCCCC)n1 [S7N7 D10] | 8.6 | 
CCCCCCCCCCCCCCCCCCNc1nc(NCCN2CCCCC2)nc(SCCCCCCCC)n1 [S8N18 D4] | 0.9 | 
CCCCCCCCCCCCCCCCCCSc1nc(NCCN(CC)CC)nc(SCCCCCCC)n1 [S7S18 D7] | 7.3 | 
